Experimental data from patent US20100144781A1, “METHODS OF TREATING PSYCHOSIS AND SCHIZOPHRENIA BASED ON POLYMORPHISMS IN THE ERBB4 GENE” (priority 2008, published 2010).

Test system: subjects with schizophrenia
Assay: Change in PANSS total score by rs6435681 (ErbB4) genotype, pooled paliperidone arms of clinical trial Nos. 1-4
Assay type: in vivo, human
Details: trials 1-4; for mean reduction in PANSS total score: baseline to end of study
Procedure: The paliperidone treated arms of clinical trial Nos. 1-4, were pooled and examined for genetic association. The trial Nos. 1-3 were paliperidone ER phase III studies and trial No. 4 was a paliperidone palmitate phase II/III study. To confirm results of the initial genetic association, additional paliperidone treated cohorts, including paliperidone palmitate phase III clinical trial Nos 5-8 and paliperidone ER phase III/IV trial Nos. 9 and 10 were evaluated. The results were further examined with the placebo arms of trial Nos. 1-4 and 6-10, the olanzapine arms of trial Nos. 1-3 and 11, the quetiapine arm of trial No. 9, and the Risperdal Consta arm of the trials No. 5 and 11.
Trial Nos. 1 to 3 were randomized, double-blind, placebo and active controlled phase III trials that were designed to evaluate efficacy and safety of paliperidone-ER in the acute treatment of subjects with schizophrenia. Schizophrenic patients experiencing active symptoms, with Positive and Negative […] (PANSS) score=70-120, were enrolled and randomized to different treatment groups. The patients received paliperidone-ER of 3 mg, 6 mg, 9 mg, 12 mg, or 15 mg, olanzapine of 10 mg or placebo tablet once daily for 6 weeks. Primary efficacy variable/Primary Time point was changed in the total PANSS score from baseline to endpoint. The baseline value was the measurement from the last visit prior to or including the first day of dosing with double-blind study medication, and the endpoint value was the measurement at the end of the double-blind phase or the last post-baseline observation during the double-blind phase. Detailed clinical study design and outcomes of trial Nos. 1-3 were described elsewhere (Marder et al., Biol Psychiatry. 2007, 62:1363-70; Davidson et al., Schizophr Res. 2007, 93:117-30; Kane et al., Schizophr Res. 2007, 90:147-61. Epub).
Trial No. 4 was a randomized, double-blind, placebo-controlled phase II/III study to evaluate the efficacy and safety of long-acting injections of paliperidone palmitate at fixed doses of 50 and 100 mg equivalent in subjects with schizophrenia. Subjects were required to have a total PANSS score between 70 and 120 at Screening and between 60 and 120 on Day 1 prior to the start of double-blind treatment. The primary efficacy variable was the change in total PANSS score from the start of the double-blinded treatment period to the last post-randomization assessment in the double-blinded treatment period.
DNA collected from subjects who consented to the optional pharmacogenomic component of the above clinical trials were analyzed in the genetic study. Briefly, blood samples were collected from subjects and extracted for genomic DNA. […]

Cc1nc2n(c(=O)c1CCN1CCC(c3noc4cc(F)ccc34)CC1)CCCC2O (stereo not shown) [Paliperidone]
mean reduction in PANSS total score (patients with AA genotype at rs6435681 (N=25)): 0.6 | patients displaying a 30% or higher reduction in PANSS total score from baseline (patients with AA genotype): 8% | mean reduction in PANSS total score (patients with GG or GA genotype at rs6435681 (N=659)): 17.8 | patients displaying a 30% or higher reduction in PANSS total score from baseline (patients with GG/GA genotype): Twenty-nine
